Laboratory results taken from ChEMBL document CHEMBL4376825, “Dual Inhibitors of Human DNA Topoisomerase II and Other Cancer-Related Targets” (J Med Chem, 2020).
Residues, ends and D or L forms follow the SMILES beside them. *: point of attachment. Cbz = O=C(OCc1ccccc1)*

Key:
P388 = experiment: Antitumor activity against mouse P388 cells implanted in ip dosed B6D2F1 mouse assessed as T/C value administered for 4 days; format: functional
[1] = Half life in human; format: ADME
HeLa = experiment: Antiproliferative activity against human HeLa cells after 72 hrs by sulforhodamine B assay; format: functional, cell-based
Bel-7402 = experiment: Antiproliferative activity against human Bel7402 cells after 72 hrs by sulforhodamine B assay; format: functional, cell-based; settings: Bel-7402, 72 h
[2] = Cytotoxicity against human RPMI8226/S cells after 4 hrs by MTT assay; format: functional, cell-based
[3] = Selectivity ratio of IC50 for […] cells to IC50 for human RPMI8226/S cells; format: functional
[4] = Cytotoxicity against […] cells after 4 hrs by MTT assay; format: functional, cell-based
Proteasome [5] = experiment: Inhibition of proteasome in human K562 cells assessed as half life of etoposide-induced Topoisomerase 2alpha-DNA complexes at 50 uM incubated for 2 hrs followed by etoposide washout and measured up to 120 mins by TARDIS assay (reference value: 0.5 hrs); format: subcellular
Proteasome [6] = experiment: Inhibition of proteasome in human K562 cells assessed as half life of mitoxantrone-induced Topoisomerase 2alpha-DNA complexes by measuring half life of complex at 50 uM incubated for 2 hrs followed by mitoxantrone washout and measured up to […] by TARDIS assay (reference value: 10 hrs); format: subcellular
U-87 MG = experiment: Antiproliferative activity against human U87 cells after 72 hrs by sulforhodamine B assay; format: functional, cell-based, U-87MG ATCC
DLD-1 = experiment: Antiproliferative activity against human DLD1 cells after 72 hrs by sulforhodamine B assay; format: functional, cell-based; settings: DLD-1, 72 h

Structure (SMILES) | T/C (P388) [%] | IC50 [2] [nM] | Ratio IC50 [3] | IC50 [4] [nM] | also measured
Cc1cnc(NCCCN(C)C)c2c1[nH]c1ccc3ccccc3c12 | 150 |  |  |  | 
CC[C@@]1(O)C(=O)OCc2c1cc1n(c2=O)Cc2cc3ccccc3nc2-1 [CAMPTOTHECIN] |  |  |  |  | half-life [1]: 1.18 to 1.5 h
COc1ccc(O)c(C(=O)c2cnc3[nH]c4ccccc4c3c2)c1 |  |  |  |  | IC50 (HeLa): 60 nM; IC50 (Bel-7402): 830 nM
N[C@H]1CCN(c2c(F)cc3c(=O)c(C(=O)O)cn4c3c2Oc2c-4ccc3c2ccc2ccccc23)C1 |  | 690 | 4 | 2800 | 
COc1ccc2c(ccc3c2c2c(NCCCN(C)C)ncc(C)c2n3C)c1 | 150 |  |  |  | 
COc1cccc2c1C(=O)c1c(O)c3c(c(O)c1C2=O)C[C@@](O)(C(=O)CO)C[C@@H]3O[C@H]1C[C@H](N)[C@H](O)[C@H](C)O1 [DOXORUBICIN] |  | 37 | 8.7 | 320 | half-life [1]: 0.0667 h
Cc1cnc(NCCCN(C)C)c2c1[nH]c1ccc3cc(O)ccc3c12 [INTOPLICINE] | 270 |  |  |  | 
N[C@@H]1CCN(c2c(F)cc3c(=O)c(C(=O)O)cn4c3c2Oc2c-4ccc3c2ccc2ccccc23)C1 |  | 320 | 1.6 | 500 | 
CC(C)C[C@@H](C=O)NC(=O)[C@H](CC(C)C)NC(=O)[C@H](CC(C)C)NC(=O)OCc1ccccc1 (Cbz-Leu-Leu-Leu-aldehyde) |  |  |  |  | T1/2 (Proteasome [5]): > 2 h; T1/2 (Proteasome [6]): > 24 h
CCCCC(C#CC(=O)OC)O/C=C/C(=O)OC (stereo not given) |  |  |  |  | IC50 (U-87 MG): 4900 nM; IC50 (DLD-1): 850 nM
